Measurements published in US20260308149A1, “NOVEL CARBOXAMIDE DERIVATIVES” (ANGELINI PHARMA S.P.A., priority 2023, published 2026).

biological target: T1, human Kv7.2 (Homo sapiens, UniProt O43526); assay: activation (potentiation) of Kv7.2 current, SyncroPatch 384 electrophysiology in CHO cells stably expressing human Kv7.2; type: cell-based; conditions: human Kv7.2 in CHO cells; in presence of 5.6 μM zinc pyrithione; % activation relative to 30 μM ML-213
T1 construct: expressed in transfected cells
T1 sequence (O43526 whole entry): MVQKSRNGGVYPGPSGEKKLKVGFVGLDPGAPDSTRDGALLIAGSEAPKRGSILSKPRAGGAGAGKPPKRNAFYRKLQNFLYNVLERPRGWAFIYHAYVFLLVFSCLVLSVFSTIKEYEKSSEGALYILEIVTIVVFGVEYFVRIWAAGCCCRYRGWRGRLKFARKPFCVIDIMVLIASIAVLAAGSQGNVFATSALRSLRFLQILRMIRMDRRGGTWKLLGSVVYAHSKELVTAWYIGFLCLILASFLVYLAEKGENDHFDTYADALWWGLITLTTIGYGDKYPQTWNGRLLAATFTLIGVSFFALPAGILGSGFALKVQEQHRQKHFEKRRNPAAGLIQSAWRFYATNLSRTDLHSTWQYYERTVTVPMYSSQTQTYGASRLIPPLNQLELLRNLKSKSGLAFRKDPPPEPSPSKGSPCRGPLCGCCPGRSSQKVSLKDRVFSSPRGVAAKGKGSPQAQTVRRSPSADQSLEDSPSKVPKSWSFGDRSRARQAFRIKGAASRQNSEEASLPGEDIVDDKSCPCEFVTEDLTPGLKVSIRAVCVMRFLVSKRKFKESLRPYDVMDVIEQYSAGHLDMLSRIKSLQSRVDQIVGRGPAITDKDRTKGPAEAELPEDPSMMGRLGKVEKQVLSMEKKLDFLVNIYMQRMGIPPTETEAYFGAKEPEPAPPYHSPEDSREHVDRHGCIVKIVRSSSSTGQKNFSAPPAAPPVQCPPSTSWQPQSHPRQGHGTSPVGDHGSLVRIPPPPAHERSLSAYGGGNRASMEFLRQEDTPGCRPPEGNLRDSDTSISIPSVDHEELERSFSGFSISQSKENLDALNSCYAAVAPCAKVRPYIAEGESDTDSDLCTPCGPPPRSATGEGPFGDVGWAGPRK
Experimental: The potency of Kv7 potentiators was determined using the SyncroPatch 384 (Nanion) high throughput electrophysiology platform.
CHO cells stably expressing either human Kv7.2, Kv7.4 or Kv7.5/7.3 under a constitutive CMV promoter were used for these studies. Cells were maintained in F12 Hams+1 mM L-glutamine (Hyclone) supplemented with 10% FBS (Sigma), 0.3×NEAA (Non-essential Gamino-acids) and 400 ug/ml G418 at 37° C. in 5% CO2. Cells were cultured in T-225 flasks (Nunc) for 2-3 days to reach 85-95% confluence prior to electrophysiological recording.
Earle's balanced salt solution (in mM): 135 NaCl, 5.4 KCl, 5 Glucose, 2 CaCl2), 1 MgCl2, 5 HEPES, pH 7.4. Seal enhancer solution (in mM): 90 NaCl, 3 KCl, 35 CaCl2), 10 MgCl2, 10 HEPES, pH 7.4. Extracellular recording solution (in mM): 71 NaCl, 70 NMDG, 13 KCl. 5 Glucose, 2 CaCl2, 1 MgCl2, 10 HEPES, pH 7.4. Intracellular recording solution (in mM): 130 KF, 20 KCl, 4 EGTA, 10 HEPES, 2 EDTA, 0.01 Escin, pH 7.2.
Cells were harvested for electrophysiological recording upon reaching appropriate confluence. Cells were first washed in DPBS (Hyclone, Cat #SH30028.03) and then 2 ml of Accutase (MP Biomedicals #1000449) was added at 28° C. until ~90% of cells were suspended. F12 HAM's media+1 mM L-glutamine (Hyclone, SH30026.02) was then added to the flask to dilute the accutase. Cells were then triturated until a single cell suspension was achieved, a cell count was performed, and cells were centrifuged for 2 min. at 1,000 rpm. Media was then aspirated, and cells were resuspended in Earle's balanced salt solution to a concentration of 0.75×10^6 cells/ml and allowed to recover for 25 min at 10° C.
At the beginning of each assay, 20 μl of cell suspension was dispensed into each well of a multi-hole 384-well SyncroPatch chip by the onboard pipettor. Cell sealing was initiated, and seal enhancer solution was added to facilitate seal formation. Upon completion of sealing, cells were washed 3 times with extracellular recording solution and the assay voltage protocol was started. Human Kv7.2, Kv7.4 or Kv7.5/7.3 channels were evaluated using a voltage protocol in which cells were voltage-clamped at a holding potential of −60 mV. Potassium currents were continuously activated with a series of three voltage steps to −30 mV for 3 seconds, 40 mV for 1 second and −90 mV for 4 seconds with 12 seconds between successive voltage sweeps. Potassium currents were measured from the −90 mV repolarizing step. Baseline current was assessed for 3.5 minutes prior to the addition of 5.6 μM zinc pyrithione (1 μM for Kv7.4). Kv7.2, Kv7.4 or Kv7.5/7.3 current in the presence of zinc pyrithione was acquired over five minutes to allow channels to reach steady state activity prior to addition of test agents. Channel activity was monitored for three minutes preceding the addition of 30 μM ML-213 (3 minutes) to achieve maximum activation. 150 mM TEA with 10 μM XE-991 was applied for 2 minutes to measure the leak current during maximum inhibition of Kv7.2, Kv7.4 or Kv7.5/7.3 channels.
Data were collected on the SyncroPatch platform using PatchControl software (Nanion) and processed and analyzed using DataControl Software (Nanion). Percent activation was calculated from potassium current as follows: The average current for the 5 sweeps in the presence of zinc pyrithione immediately preceding test agent addition was taken as the ‘control’ data. Likewise, the average potassium current in the presence of test agents 5 sweeps immediately preceding addition of 30 μM ML-213 was determined for ‘drug’ data. The average potassium current 5 sweeps immediately prior to addition of 150 mM TEA+10 μM XE-991 was determined for ‘max activation’ data while average currents from 5 sweeps immediately following addition of TEA was determined for ‘max inhibition’ data. Percent activation for each of the 384-wells of a sealchip was calculated as ((‘drug’−‘max inhibition’)/(‘max activation’−‘max inhibition’))*100 with Pipeline Pilot (Accelrys). […]

Question: How did the EC50 turn out when `CO[C@@](C)(CNC(=O)[C@H]1C[C@@H]1c1cccnc1)c1cccc(Cl)c1` (mixture of isomers) [Example 48, (1SR,2SR)-N-[(2R)-2-(3-chlorophenyl)-2-methoxy-propyl]-2-(3-pyridyl)cyclopropanecarboxamide] was run?
Answer: Its EC50 is 9610 nM.

Question: How did the EC50 turn out when `COC(C)(CNC(=O)[C@H]1C[C@@H]1c1ccccc1)c1ccnc(Cl)c1` (mixture of isomers) [Example 51, (1S,2S)-N-[(2RS)-2-(2-chloro-4-pyridyl)-2-methoxy-propyl]-2-phenyl-cyclopropanecarboxamide] was run?
Answer: Its EC50 is 940 nM.

Question: `COc1cc(C(C)(CNC(=O)[C@H]2C[C@@H]2c2ccccc2)OC)ccn1` (mixture of isomers) [Example 52, (1S,2S)-N-[(2RS)-2-methoxy-2-(2-methoxy-4-pyridyl)propyl]-2-phenyl-cyclopropanecarboxamide] was tested. Which EC50 did it give?
Answer: The EC50 was 9420 nM.

Question: Which EC50 does the source give for `CO[C@@](C)(CNC(=O)[C@@H]1C[C@H]1C1CC1)c1cccc(Cl)c1` (mixture of isomers) [Example 79, (1RS,2SR)—N-[(2R)-2-(3-chlorophenyl)-2-methoxy-propyl]-2-cyclopropyl-cyclopropanecarboxamide] here?
Answer: The EC50 was 1120 nM.

Question: With `CO[C@@](C)(CNC(=O)[C@@H]1C[C@H]1C1CCCC1)c1cccc(Cl)c1` (mixture of isomers) [Example 80, (1RS,2SR)—N-[(2R)-2-(3-chlorophenyl)-2-methoxy-propyl]-2-cyclopentyl-cyclopropanecarboxamide] as the compound, how does the EC50 read?
Answer: Its EC50 is 220 nM.

Question: `CO[C@@](C)(CNC(=O)[C@H]1C[C@H]1C1CCCC1)c1cccc(Cl)c1` (mixture of isomers) [Example 81, (1SR,2SR)—N-[(2R)-2-(3-chlorophenyl)-2-methoxy-propyl]-2-cyclopentyl-cyclopropanecarboxamide] was tested. Which EC50 did it give?
Answer: Its EC50 is 500 nM.

Question: How did the EC50 turn out when `N#Cc1cccc([C@]2(CNC(=O)[C@H]3C[C@@H]3C3CCC3)CCO2)c1` (mixture of isomers) [Example 101, (1SR,2RS)—N-[[(2S)-2-(3-cyanophenyl)oxetan-2-yl]methyl]-2-cyclobutyl-cyclopropanecarboxamide] was run?
Answer: Its EC50 is 260 nM.

Question: `N#Cc1cccc([C@]2(CNC(=O)[C@H]3C[C@@H]3c3ccc(F)cc3)CCO2)c1` (mixture of isomers) [Example 107, (1SR,2SR)—N-[[(2S)-2-(3-cyanophenyl)oxetan-2-yl]methyl]-2-(4-fluorophenyl)cyclopropanecarboxamide] was tested. Which EC50 did it give?
Answer: Its EC50 is 130 nM.

Question: With `CC(C)(C)[C@@H]1C[C@H]1C(=O)NC[C@@]1(c2cccc(C#N)c2)CCO1` (mixture of isomers) [Example 110, (1RS,2RS)-2-tert-butyl-N-[[(2S)-2-(3-cyanophenyl)oxetan-2-yl]methyl]cyclopropanecarboxamide] as the compound, how does the EC50 read?
Answer: Its EC50 is 490 nM.

Question: How did the EC50 turn out when `CC(F)(F)[C@H]1C[C@@H]1C(=O)NC[C@@]1(c2cccc(C#N)c2)CCO1` (mixture of isomers) [Example 113, (1SR,2SR)—N-[[(2S)-2-(3-cyanophenyl)oxetan-2-yl]methyl]-2-(1,1-difluoroethyl)cyclopropanecarboxamide] was run?
Answer: Its EC50 is 2180 nM.

Question: For `CC(C)(C)O[C@H]1C[C@@H]1C(=O)NC[C@@]1(c2cccc(C#N)c2)CCO1` (mixture of isomers) [Example 114, (1SR,2SR)-2-tert-butoxy-N-[[(2S)-2-(3-cyanophenyl)oxetan-2-yl]methyl]cyclopropanecarboxamide], which EC50 is on record?
Answer: Its EC50 is 7520 nM.

Question: Which EC50 does the source give for `N#Cc1cccc([C@]2(CNC(=O)[C@H]3C[C@@H]3c3ccccn3)CCO2)c1` (mixture of isomers) [Example 124, (1SR,2SR)—N-[[(2S)-2-(3-cyanophenyl)oxetan-2-yl]methyl]-2-(2-pyridyl)cyclopropanecarboxamide] here?
Answer: Its EC50 is 6010 nM.

Question: With `CC[C@H]1C[C@@H]1C(=O)NC[C@@]1(c2cccc(C#N)c2)CCO1` (mixture of isomers) [Example 126, (1SR,2SR)—N-[[(2S)-2-(3-cyanophenyl)oxetan-2-yl]methyl]-2-ethyl-cyclopropanecarboxamide] as the compound, how does the EC50 read?
Answer: The EC50 was 4980 nM.

Question: How did the EC50 turn out when `N#Cc1cccc([C@]2(CNC(=O)[C@H]3C[C@@H]3C3CC(F)(F)C3)CCO2)c1` (mixture of isomers) [Example 127, (1SR,2RS)—N-[[(2S)-2-(3-cyanophenyl)oxetan-2-yl]methyl]-2-(3,3-difluorocyclobutyl)cyclopropanecarboxamide] was run?
Answer: Its EC50 is 1040 nM.

Question: For `CC#C[C@H]1C[C@@H]1C(=O)NC[C@@]1(c2cccc(C#N)c2)CCO1` (mixture of isomers) [Example 134, (1SR,2SR)—N-[[(2S)-2-(3-cyanophenyl)oxetan-2-yl]methyl]-2-prop-1-ynyl-cyclopropanecarboxamide], which EC50 is on record?
Answer: Its EC50 is 1700 nM.

Question: How did the EC50 turn out when `CC#C[C@@H]1C[C@@H]1C(=O)NC[C@@]1(c2cccc(C#N)c2)CCO1` (mixture of isomers) [Example 137, (1SR,2RS)—N-[[(2S)-2-(3-cyanophenyl)oxetan-2-yl]methyl]-2-prop-1-ynyl-cyclopropanecarboxamide] was run?
Answer: The EC50 was 1110 nM.

Question: With `COC(C)(CNC(=O)[C@H]1C[C@@H]1c1ccccc1)c1cccc(Cl)c1` (mixture of isomers) [Example 1, rac-(1S,2S)-N-[2-(3-chlorophenyl)-2-methoxy-propyl]-2-phenyl-cyclopropanecarboxamide] as the compound, how does the EC50 read?
Answer: The EC50 was 170 nM.

Question: Which EC50 does the source give for `COC(CNC(=O)[C@H]1C[C@@H]1c1ccccc1)c1cccc(Cl)c1` (mixture of isomers) [Example 20, rac-(1R,2R)-N-[2-(3-chlorophenyl)-2-methoxy-ethyl]-2-phenyl-cyclopropanecarboxamide] here?
Answer: The EC50 was 970 nM.

Question: Which EC50 does the source give for `COC(C)(CNC(=O)N[C@H]1CC2CCC1C2)c1cccc(Cl)c1` (mixture of isomers) [Example 25, 1-[2-(3-chlorophenyl)-2-methoxy-propyl]-3-[rac-(1S,2S,4R)-norbornan-2-yl]urea] here?
Answer: Its EC50 is 170 nM.

Question: `CC(C#N)(CNC(=O)[C@H]1C[C@@H]1c1ccccc1)c1cccc(C(F)(F)F)c1` (mixture of isomers) [Example 31, rac-(1S,2S)-N-[2-cyano-2-[3-(trifluoromethyl)phenyl]propyl]-2-phenyl-cyclopropanecarboxamide] was tested. Which EC50 did it give?
Answer: Its EC50 is 2490 nM.

Question: How did the EC50 turn out when `COC(C)(CNC(=O)NC1CC2CCC1C2)c1cccc(Cl)c1` (racemic) [Example 35, 1-[2-(3-chlorophenyl)-2-methoxy-propyl]-3-[rac-(1S,4R)-norbornan-2-yl]urea] was run?
Answer: Its EC50 is 1350 nM.

Question: Which EC50 does the source give for `CC(C#N)(CNC(=O)[C@H]1C[C@@H]1c1ccccc1)c1cccc(Cl)c1` (mixture of isomers) [Example 37, rac-(1S,2S)-N-[2-(3-chlorophenyl)-2-cyano-propyl]-2-phenyl-cyclopropanecarboxamide] here?
Answer: Its EC50 is 1320 nM.

Question: For `O=C(N[C@H]1C[C@@H]2CC[C@H]1C2)N[C@H]1C[C@H](c2cccc(Cl)c2)C1` (racemic) [Example 38, 1-[3-(1r,3r)-(3-chlorophenyl)cyclobutyl]-3-[(1SR,2SR,4RS)-norbornan-2-yl]urea], which EC50 is on record?
Answer: The EC50 was 830 nM.

Question: For `O=C(NCC(OCC(F)(F)F)c1cccc(Cl)c1)NC1C[C@H]2CC[C@@H]1C2` (mixture of isomers) [Example 45, 1-[2-(3-chlorophenyl)-2-(2,2,2-trifluoroethoxy)ethyl]-3-[rac-(1R,4S)-norbornan-2-yl]urea], which EC50 is on record?
Answer: Its EC50 is 790 nM.

Question: `O=C(NCC(OC1CCC1)c1cccc(Cl)c1)NC1C[C@H]2CC[C@@H]1C2` (mixture of isomers) [Example 46, 1-[2-(3-chlorophenyl)-2-(cyclobutoxy)ethyl]-3-[rac-(1R,4S)-norbornan-2-yl]urea] was tested. Which EC50 did it give?
Answer: Its EC50 is 3350 nM.

Question: How did the EC50 turn out when `O=C(NCC1(c2cccc(Cl)c2)CCO1)NC1CC2CCC1C2` (racemic) [Example 54, 1-[[2-(3-chlorophenyl)oxetan-2-yl]methyl]-3-[rac-(1S,2S,4R)-norbornan-2-yl]urea] was run?
Answer: Its EC50 is 190 nM.
